Laboratory results as given in patent publication US11566007B2, “Ras inhibitors” (Revolution Medicines, Inc., priority 2019, dated 2023).

Legend:
KRAS G12D = KRAS G12D (Homo sapiens (Human), UniProt P01116+P62937, G12D); test: Ras-Raf (BRAF RBD) disruption / FRET / MOA assay, KRAS G12D; type: biochemical; conditions: Ras-Raf disruption/FRET/MOA assay; class symbols; read-out: KRAS G12D FRET data IC50
Protocol: (§1) The purpose of this biochemical assay is to measure the ability of test compounds to facilitate ternary complex formation between a nucleotide-loaded Ras isoform and cyclophilin A; the resulting ternary complex disrupts binding to a BRAF^RBD construct, inhibiting Ras signaling through a RAF effector.
(§2) Compound is present in plate wells as a 10-point 3-fold dilution series starting at a final concentration of 30 μM. After incubation at 25° C. for 3 hours, a mixture of Anti-His Eu-W1024 and anti-GST allophycocyanin is then added to assay sample wells at final concentrations of 10 nM and 50 nM, respectively, and the reaction incubated for an additional 1.5 hours. […] Compounds that facilitate disruption of a Ras:RAF complex are identified as those eliciting a decrease in the TR-FRET ratio relative to DMSO control wells.
(§3) This protocol may also be executed substituting other Ras proteins or nucleotides.
(§4) The purpose of this biochemical assay was to measure the ability of test compounds to facilitate ternary complex formation between a nucleotide-loaded K-Ras isoform and Cyclophilin A; the resulting ternary complex disrupts binding to a BRAF^RBD construct, inhibiting K-Ras signaling through a RAF effector. Data is reported as IC50 values.
as §2, with “Compound was” for “Compound is”, “allophycocyanin was” for “allophycocyanin is”, “a K-Ras:RAF” for “a Ras:RAF”, “complex were” for “complex are”

KRAS G12S = KRAS G12S (Homo sapiens (Human), UniProt P01116+P62937, G12S); test: Ras-Raf (BRAF RBD) disruption / FRET / MOA assay, KRAS G12S; type: biochemical; conditions: Ras-Raf disruption/FRET/MOA assay; class symbols; read-out: KRAS G12S FRET data IC50
Protocol: as §1, §2, §3, §4
as §2, with “Compound was” for “Compound is”, “allophycocyanin was” for “allophycocyanin is”, “a K-Ras:RAF” for “a Ras:RAF”, “complex were” for “complex are”

KRAS G12S, sequence (P01116-2 other isoform, or with tags, fused parts or gaps G12S): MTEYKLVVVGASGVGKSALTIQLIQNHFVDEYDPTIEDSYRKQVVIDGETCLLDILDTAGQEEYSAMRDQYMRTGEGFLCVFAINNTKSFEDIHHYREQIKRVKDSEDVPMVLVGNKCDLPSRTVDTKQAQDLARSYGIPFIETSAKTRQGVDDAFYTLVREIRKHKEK
KRAS G12S, sequence (P62937 whole entry): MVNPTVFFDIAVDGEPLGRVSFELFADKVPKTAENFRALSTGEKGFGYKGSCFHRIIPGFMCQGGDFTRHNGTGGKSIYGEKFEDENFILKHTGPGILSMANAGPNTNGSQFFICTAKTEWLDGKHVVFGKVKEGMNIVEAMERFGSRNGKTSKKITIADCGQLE
KRAS G12D, sequence (P01116-2 other isoform, or with tags, fused parts or gaps G12D): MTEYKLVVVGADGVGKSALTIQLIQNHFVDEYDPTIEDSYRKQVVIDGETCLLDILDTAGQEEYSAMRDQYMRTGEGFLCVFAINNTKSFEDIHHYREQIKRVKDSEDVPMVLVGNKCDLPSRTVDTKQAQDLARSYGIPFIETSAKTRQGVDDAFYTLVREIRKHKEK
KRAS G12D, sequence (P62937 whole entry, canonical isoform): as the sequence (P62937 whole entry) above

IC50 (KRAS G12D) [µM]	IC50 (KRAS G12S) [µM]	SMILES
> 10	0.1 to 1	C=CC(=O)N1C[C@H](C)[C@H](C(=O)N(C)[C@H](C(=O)N[C@H]2Cc3cc(O)cc(c3)-c3ccc4c(c3)c(c(-c3ccccc3CCOC)n4CC)CC(C)(C)COC(=O)[C@@H]3CCCN(N3)C2=O)C(C)C)C1 [Example A041]
1 to 10	0.1 to 1	C=CC(=O)N1CC[C@H](C(=O)N(C)[C@H](C(=O)N[C@H]2Cc3cc(O)cc(c3)-c3ccc4c(c3)c(c(-c3cccnc3COCC)n4CC)CC(C)(C)COC(=O)[C@@H]3CCCN(N3)C2=O)C(C)C)C1 [Example A044]
> 10	> 10	CCn1c(-c2ccccc2CN(C)C)c2c3cc(ccc31)-c1cc(O)cc(c1)C[C@H](NC(=O)[C@H](C(C)C)N(C)C(=O)c1ccc(NC(=O)/C=C/CN(C)C)cc1)C(=O)N1CCC[C@H](N1)C(=O)OCC(C)(C)C2 [Example A049]
1 to 10	0.1 to 1	C=CC(=O)N1CC[C@H](C(=O)N(C)[C@H](C(=O)N[C@H]2Cc3cc(O)cc(c3)-c3ccc4c(c3)c(c(-c3ccc(CN(C)C)cc3COC)n4CC)CC(C)(C)COC(=O)[C@@H]3CCCN(N3)C2=O)C(C)C)C1 [Example A051]
1 to 10	0.1 to 1	C=CC(=O)N1C[C@H](C)[C@H](C(=O)N(C)[C@H](C(=O)N[C@H]2Cc3cc(O)cc(c3)-c3ccc4c(c3)c(c(-c3ccccc3CN(C)C)n4CC)CC(C)(C)COC(=O)[C@@H]3CCCN(N3)C2=O)C(C)C)C1 [Example A052]
1 to 10	0.1 to 1	C=CC(=O)N1CC[C@H](C(=O)N(C)[C@H](C(=O)N[C@H]2Cc3cc(O)cc(c3)-c3ccc4c(c3)c(c(-c3cccnc3COC)n4CC)CC(C)(C)COC(=O)[C@@H]3CCCN(N3)C2=O)C2CCCC2)C1 [Example A055]
> 10	1 to 10	C=CC(=O)N1CC[C@@]2(CCN([C@H](C(=O)N[C@H]3Cc4cc(O)cc(c4)-c4ccc5c(c4)c(c(-c4ccccc4CCOC)n5CC)CC(C)(C)COC(=O)[C@@H]4CCCN(N4)C3=O)C(C)C)C2=O)C1 [Example A068]
> 10	1 to 10	C=CC(=O)N1CC[C@H](C(=O)N(C)[C@H](C(=O)N[C@H]2Cc3cc(O)cc(c3)-c3ccc4c(c3)c(c(-c3cncc(CN(C)C)c3)n4CC)CC(C)(C)COC(=O)[C@@H]3CCCN(N3)C2=O)C(C)C)C1 [Example A073]
> 10	> 10	C=CC(=O)N1CC[C@H](C(=O)N(C)[C@H](C(=O)N[C@H]2Cc3cc(O)cc(c3)-c3ccc4c(c3)c(c(-c3c(CCOC)cccc3OC)n4CC)CC(C)(C)COC(=O)[C@@H]3CCCN(N3)C2=O)C(C)C)C1 [Example A080]
> 10	1 to 10	C=CC(=O)N1CC[C@H](C(=O)N(C)[C@H](C(=O)N[C@H]2Cc3cc(O)cc(c3)-c3ccc4c(c3)c(c(-c3cncc(CCN(C)C)c3)n4CC)CC(C)(C)COC(=O)[C@@H]3CCCN(N3)C2=O)C(C)C)C1 [Example A081]
> 10	> 10	C=CC(=O)N1CC[C@H](C(=O)N(C)[C@H](C(=O)N[C@H]2Cc3cc(O)cc(c3)-c3ccc4c(c3)c(c(-c3ncccc3COC)n4CC)CC(C)(C)COC(=O)[C@@H]3CCCN(N3)C2=O)C(C)C)C1 [Example A084]
> 10	> 10	C=CC(=O)N1CC[C@H](C(=O)N(C)[C@H](C(=O)N[C@H]2Cc3cc(O)cc(c3)-c3ccc4c(c3)c(c(-c3nccnc3COC)n4CC)CC(C)(C)COC(=O)[C@@H]3CCCN(N3)C2=O)C(C)C)C1 [Example A085]
> 10	1 to 10	C=CC(=O)N1CC[C@H](C(=O)N(C)[C@H](C(=O)N[C@H]2Cc3cc(O)cc(c3)-c3ccc4c(c3)c(c(-c3cccnc3CN(C)C)n4CC)CC(C)(C)COC(=O)[C@@H]3CCCN(N3)C2=O)C(C)C)C1 [Example A092]
1 to 10	0.1 to 1	C=CC(=O)N1CC[C@H](C(=O)N(C)[C@H](C(=O)N[C@H]2Cc3cc(O)cc(c3)-c3ccc4c(c3)c(c(-c3cccnc3COC)n4CC#N)CC(C)(C)COC(=O)[C@@H]3CCCN(N3)C2=O)C(C)C)C1 [Example A093]
> 10	> 10	C=CC(=O)N1CC[C@H](C(=O)N(C)[C@H](C(=O)N[C@H]2Cc3nc(cs3)-c3ccc4c(c3)c(c(-c3cccnc3COC)n4CC)CC(C)(C)COC(=O)[C@@H]3CCCN(N3)C2=O)C(C)C)C1 [Example A094]
1 to 10	0.1 to 1	CCn1c(-c2cccnc2COC)c2c3cc(ccc31)-c1cc(O)cc(c1)C[C@H](NC(=O)[C@H](C(C)C)N(C)C(=O)C1CN(C(=O)C#CCN(C)C)C1)C(=O)N1CCC[C@H](N1)C(=O)OCC(C)(C)C2 [Example A097]
> 10	1 to 10	C=CC(=O)N1CC[C@H](C(=O)N(C)[C@H](C(=O)N[C@H]2Cc3cc(O)cc(c3)-c3ccc4c(c3)c(c(-c3ccc(C5CCN(C)CC5)nc3)n4CC)CC(C)(C)COC(=O)[C@@H]3CCCN(N3)C2=O)C(C)C)C1 [Example A098]
> 10	1 to 10	C=CC(=O)N1CC[C@H](C(=O)N(C)[C@H](C(=O)N[C@H]2Cc3cc(O)cc(c3)-c3ccc4c(c3)c(c(-c3cnn(C)c3)n4CC)CC(C)(C)COC(=O)[C@@H]3CCCN(N3)C2=O)C(C)C)C1 [Example A099]

SMILES	IC50 (KRAS G12D) [µM]	IC50 (KRAS G12S) [µM]
C=CC(=O)N1CC[C@H](C(=O)N(C)[C@H](C(=O)N[C@H]2Cc3cc(O)cc(c3)-c3ccc4c(c3)c(c(-c3ccc(C5CCN(C)CC5)cc3)n4CC)CC(C)(C)COC(=O)[C@@H]3CCCN(N3)C2=O)C(C)C)C1 [Example A039]	1 to 10	1 to 10
C=CC(=O)N1CC[C@H](C(=O)N(C)[C@H](C(=O)N[C@H]2Cc3cc(O)cc(c3)-c3ccc4c(c3)c(c(-c3ccc5c(c3)CCN(C)C5)n4CC)CC(C)(C)COC(=O)[C@@H]3CCCN(N3)C2=O)C(C)C)C1 [Example A040]	> 10	1 to 10
C=CC(=O)N1CC[C@H](C(=O)N(C)[C@H](C(=O)N[C@H]2Cc3cc(N)cc(c3)-c3ccc4c(c3)c(c(-c3ccccc3COC)n4CC)CC(C)(C)COC(=O)[C@@H]3CCCN(N3)C2=O)C(C)C)C1 [Example A042]	> 10	> 10
C=CC(=O)N1C[C@H](C)[C@H](C(=O)N(C)[C@H](C(=O)N[C@H]2Cc3cc(O)cc(c3)-c3ccc4c(c3)c(c(-c3ccccc3CN(C)C)n4CC)CC(C)(C)COC(=O)[C@@H]3CCCN(N3)C2=O)C2CCCC2)C1 [Example A043]	1 to 10	0.1 to 1
CCn1c(-c2ccccc2CN(C)C)c2c3cc(ccc31)-c1cc(O)cc(c1)C[C@H](NC(=O)[C@H](C(C)C)N(C)C(=O)c1ccc(NC(=O)/C=C/CN(C)C)cn1)C(=O)N1CCC[C@H](N1)C(=O)OCC(C)(C)C2 [Example A046]	1 to 10	> 10
C=CC(=O)N1C[C@H](C)[C@H](C(=O)N(C)[C@H](C(=O)N[C@H]2Cc3cc(O)cc(c3)-c3ccc4c(c3)c(c(-c3cccnc3COC)n4CC)CC(C)(C)COC(=O)[C@@H]3CCCN(N3)C2=O)C(C)C)C1 [Example A056]	1 to 10	0.1 to 1
C=CC(=O)N1C[C@H](C)[C@H](C(=O)N(C)[C@H](C(=O)N[C@H]2Cc3cc(O)cc(c3)-c3ccc4c(c3)c(c(-c3cccnc3COC)n4CC)CC(C)(C)COC(=O)[C@@H]3CCCN(N3)C2=O)C2CCCC2)C1 [Example A057]	1 to 10	0.1 to 1
C=CC(=O)N1CC[C@H](C(=O)N(C)[C@H](C(=O)N[C@H]2Cc3cc(O)cc(c3)-c3ccc4c(c3)c(c(C3=C(COC)COCC3)n4CC)CC(C)(C)COC(=O)[C@@H]3CCCN(N3)C2=O)C(C)C)C1 [Example A058]	1 to 10	0.1 to 1
C=CC(=O)N1CC[C@H](C(=O)N(C)[C@H](C(=O)N[C@H]2Cc3cc(OC(C)=O)cc(c3)-c3ccc4c(c3)c(c(-c3ccccc3CN(C)C)n4CC)CC(C)(C)COC(=O)[C@@H]3CCCN(N3)C2=O)C(C)C)C1 [Example A059]	> 10	> 10
C=CC(=O)N1CC[C@H](C(=O)N(C)[C@H](C(=O)N[C@H]2Cc3cc(O)cc(c3)-c3ccc4c(c3)c(c(-c3cccnc3COC)n4C)CC(C)(C)COC(=O)[C@@H]3CCCN(N3)C2=O)C(C)C)C1 [Example A066]	> 10	1 to 10
C=CC(=O)N1CC[C@H](C(=O)N(C)[C@H](C(=O)N[C@H]2Cc3cc(OC(=O)N(C)CC(=O)O)cc(c3)-c3ccc4c(c3)c(c(-c3ccccc3CCOC)n4CC)CC(C)(C)COC(=O)[C@@H]3CCCN(N3)C2=O)C(C)C)C1 [Example A078]	> 10	> 10
CCn1c(-c2ccccc2COC)c2c3cc(ccc31)-c1cc(O)cc(c1)C[C@H](NC(=O)[C@H](C(C)C)N(C)C(=O)[C@H]1CCN(C(=O)/C=C/CN(C)C)C1)C(=O)N1CCC[C@H](N1)C(=O)OCC(C)(C)C2 [Example A079]	1 to 10	0.1 to 1
CCn1c(-c2cnccc2COC)c2c3cc(ccc31)-c1cc(O)cc(c1)C[C@H](NC(=O)[C@H](C(C)C)N(C)C(=O)[C@H]1CCN(C(=O)C#CCN(C)C)C1)C(=O)N1CCC[C@H](N1)C(=O)OCC(C)(C)C2 [Example A088]	1 to 10	0.1 to 1
